Assay results taken from patent publication US6348445B1, “Biologically active peptides with reduced toxicity in animals and a method for preparing same” (priority 1992, dated 2002).
Where no end group is shown, it is not given here.

Key:
[1] = tested on: S. aureus ATCC 29213; type: cell-based; conditions: ATCC 29213
[2] = MTD and LD50, single intraperitoneal administration; type: in vivo, mice; conditions: for No. of Survivors Day 1 / No. of Survivors Day 2 / No. of Survivors Day 3 / No. of Survivors Day 4 / No. of Survivors Day 5 / No. of Survivors Day 6 / No. of Survivors Day 7 / No. of Survivors Day 8 / No. of Survivors Day 11: 4 injected
Experimental: Determinations of a maximal tolerated dose (MTD) of a single intravenous (i.v.) administration or intraperitoneal (i.p.) administration of MSI-344 or MSI-1857 in 100 CD-1®BR mice were done. The MTD of a single intravenous (i.v.) administration was 10 mg/kg for MSI-344 and 60 mg/kg for MSI-1857. The MTD of a single intraperitoneal (i.p.) administration was less than 20 mg/kg for MSI-344 and between 50 and 100 mg/kg for MSI-1857.
To determine estimates of MTDs and LD50s of MSI-344 and MSI-1857 administered intravenously or intraperitoneally as a single bolus in mice.
A 5 mg/mL solution of MSI-344 was made in saline (0.9% sodium chloride injection USP, Abbott, North Chicago, Ill.) corrected for peptide content. Solutions of MSI-344 at concentrations of 4, 3, 2, 1.5, 1, and 0.5 mg/mL were made by diluting the 5 mg/mL solution using saline as diluent. (Errors were made in solution preparation of the 4, 3, and 2 mg/mL solutions and results from groups with animals doses with these solutions, i.e. groups 12, 13, and 14, were eliminated from study analysis). A 20 mg/mL solution of MSI-1857 was made in saline. Solutions of MSI-1857 at concentrations of 15, 10, 8, 6, and 5 mg/mL were made by diluting the 20 mg/mL solution using saline as diluent.
Another 5 mg/mL solution of MSI-344 was made in saline corrected for peptide content. Solutions of 4, 3 and 2 mg/mL were made by diluting the 5 mg/mL solution using saline as diluent. A 15 mg/mL solution of MSI-1857 in saline was made corrected for peptide content. A 10 mg/mL solution was made by diluting the 15 mg/mL solution with saline.
Mice (four mice per dose group) were intravenously or intraperitoneally administered a single bolus of MSI-344 or MSI-1857 using an injection volume of 10 mL/kg of the appropriate solution concentration. If the first two mice in a group died immediately (within 10 secs) after administration of a dose then no other mice injected with this dose of this compound (for ethical reasons). Survival was monitored daily for at least eight days post-administration. Study designs are presented in Tables IX and X. Toxicity Study # 262 was a supplement to Toxicity Study #261.

[3] = Tox Study 262 group 2, 50 mg/kg IP
[4] = Tox Study 262 group 3, 40 mg/kg IP
[5] = Tox Study 262 group 4, 30 mg/kg IP
[6] = Tox Study 262 group 5, 20 mg/kg IP
[7] = Tox Study #261 group 11, 50 mg/kg IP
[8] = Tox Study #261 group 12, dose TBD (solution error, eliminated from analysis) IP
[9] = Tox Study #261 group 13, dose TBD (solution error, eliminated from analysis) IP
[10] = Tox Study #261 group 14, dose TBD (solution error, eliminated from analysis) IP

GIGKFLKKAKKFGKAFVKILKK [MSI-344]
3: No. of Survivors Day 1 [2, 6] | No. of Survivors Day 2 [2, 6] | No. of Survivors Day 3 [2, 6] | No. of Survivors Day 4 [2, 6] | No. of Survivors Day 5 [2, 6] | No. of Survivors Day 6 [2, 6] | No. of Survivors Day 7 [2, 6] | No. of Survivors Day 8 [2, 6] | No. of Survivors Day 11 [2, 6]
1: No. of Survivors Day 2 [2, 8] | No. of Survivors Day 3 [2, 8] | No. of Survivors Day 4 [2, 8] | No. of Survivors Day 5 [2, 8] | No. of Survivors Day 6 [2, 8] | No. of Survivors Day 7 [2, 8] | No. of Survivors Day 8 [2, 8] | No. of Survivors Day 2 [2, 10] | No. of Survivors Day 3 [2, 10] | No. of Survivors Day 4 [2, 10] | No. of Survivors Day 5 [2, 10] | No. of Survivors Day 6 [2, 10] | No. of Survivors Day 7 [2, 10] | No. of Survivors Day 8 [2, 10]
128 mg/L: MIC S. aureus ATCC 29213 [1]
23.5 mg/kg: LD50 ([2]; mouse, in vivo, ip, CD-1 mice, estimated from dose response curves)
0: No. of Survivors Day 1 [2, 3] | No. of Survivors Day 2 [2, 3] | No. of Survivors Day 3 [2, 3] | No. of Survivors Day 4 [2, 3] | No. of Survivors Day 5 [2, 3] | No. of Survivors Day 6 [2, 3] | No. of Survivors Day 7 [2, 3] | No. of Survivors Day 8 [2, 3] | No. of Survivors Day 11 [2, 3] | No. of Survivors Day 1 [2, 4] | No. of Survivors Day 2 [2, 4] | No. of Survivors Day 3 [2, 4] | No. of Survivors Day 4 [2, 4] | No. of Survivors Day 5 [2, 4] | No. of Survivors Day 6 [2, 4] | No. of Survivors Day 7 [2, 4] | No. of Survivors Day 8 [2, 4] | No. of Survivors Day 11 [2, 4] | No. of Survivors Day 1 [2, 5] | No. of Survivors Day 2 [2, 5] | No. of Survivors Day 3 [2, 5] | No. of Survivors Day 4 [2, 5] | No. of Survivors Day 5 [2, 5] | No. of Survivors Day 6 [2, 5] | No. of Survivors Day 7 [2, 5] | No. of Survivors Day 8 [2, 5] | No. of Survivors Day 11 [2, 5] | No. of Survivors Day 1 [2, 7] | No. of Survivors Day 2 [2, 7] | No. of Survivors Day 3 [2, 7] | No. of Survivors Day 4 [2, 7] | No. of Survivors Day 5 [2, 7] | No. of Survivors Day 6 [2, 7] | No. of Survivors Day 7 [2, 7] | No. of Survivors Day 8 [2, 7] | No. of Survivors Day 1 [2, 9] | No. of Survivors Day 2 [2, 9] | No. of Survivors Day 3 [2, 9] | No. of Survivors Day 4 [2, 9] | No. of Survivors Day 5 [2, 9] | No. of Survivors Day 6 [2, 9] | No. of Survivors Day 7 [2, 9] | No. of Survivors Day 8 [2, 9]
< 20 mg/kg: MTD ([2]; mouse, in vivo, ip, CD-1 mice, read-out: MTD of a single intraperitoneal (i.p.) administration)
2: No. of Survivors Day 1 [2, 8] | No. of Survivors Day 1 [2, 10]
